Experimental data as given in patent US20240246964A1 (Arbutus Biopharma Corporation, priority 2021, published 2024).

What was measured:
[1] = target: human PD-L1 (Homo sapiens (Human), UniProt Q9NZQ7); test: T cell activation luciferase reporter cell culture system (T Cell Activation Assay); format: cell-based; settings: luciferase reporter assay; PD-L1 aAPC/CHO-K1 cells with PD-1 effector Jurkat T cells
[2] = target: PD-L1 His protein / PD-1 Fc protein (Homo sapiens (Human), UniProt Q9NZQ7); test: HTRF Assay (PD-1/PD-L1 interaction); format: binding; settings: PD-L1 His 6 nM, PD-1 Fc 6 nM
Sequence of PD-L1 His protein / PD-1 Fc protein (Q9NZQ7 19-238): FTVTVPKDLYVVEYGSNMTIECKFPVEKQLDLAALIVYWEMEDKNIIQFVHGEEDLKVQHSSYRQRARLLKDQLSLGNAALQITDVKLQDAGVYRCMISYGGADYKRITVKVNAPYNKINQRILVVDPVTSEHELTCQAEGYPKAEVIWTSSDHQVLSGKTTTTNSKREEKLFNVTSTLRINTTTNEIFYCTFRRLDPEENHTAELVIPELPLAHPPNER

Sequence of human PD-L1 (Q9NZQ7 19-290): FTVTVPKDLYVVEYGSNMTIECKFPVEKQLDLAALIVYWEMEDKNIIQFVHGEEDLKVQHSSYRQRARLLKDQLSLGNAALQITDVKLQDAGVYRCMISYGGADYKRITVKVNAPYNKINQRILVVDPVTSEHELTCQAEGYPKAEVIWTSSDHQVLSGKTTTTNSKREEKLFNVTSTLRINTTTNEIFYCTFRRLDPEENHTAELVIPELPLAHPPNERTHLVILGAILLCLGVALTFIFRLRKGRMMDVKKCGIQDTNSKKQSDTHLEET

SMILES	EC50 [1]	IC50 [2]
COc1cc(-c2nccc(-c3cccc(-c4ccc(CN5CC6(CCOCC6)C5)c(OC)n4)c3Cl)c2Cl)ccc1CN1CC2(CCOCC2)C1 [Example 470, 2-((6-(3-(2-(4-((7-Oxa-2-azaspiro[3.5]nonan-2-yl)methyl)-3-methoxyphenyl)-3-chloropyridin-4-yl)-2-chlorophenyl)-2-methoxypyridin-3-yl)methyl)-7-oxa-2-azaspiro[3.5]nonane]	190 nM	19.3 nM
COc1cc(-c2nccc(-c3cccc(-c4ccc(CN5CC(C(C)(C)O)C5)c(OC)n4)c3Cl)c2Cl)ccc1CN1CC(C(C)(C)O)C1 [Example 471, 2-(1-((6-(2-Chloro-3-(3-chloro-2-(4-((3-(2-hydroxypropan-2-yl)azetidin-1-yl)methyl)-3-methoxyphenyl)pyridin-4-yl)phenyl)-2-methoxypyridin-3-yl)methyl)azetidin-3-yl)propan-2-ol]	111 nM	4.63 nM
COc1cc(-c2nccc(-c3cccc(-c4ccc(CN(C)C[C@H]5CNC(=O)C5)c(OC)n4)c3Cl)c2Cl)ccc1CN(C)C[C@H]1CNC(=O)C1 [Example 473, (R)-4-((((6-(2-Chloro-3-(3-chloro-2-(3-methoxy-4-((methyl(((R)-5-oxopyrrolidin-3-yl)methyl)amino)methyl)phenyl)pyridin-4-yl)phenyl)-2-methoxypyridin-3-yl)methyl)(methyl)amino)methyl)pyrrolidin-2-one]	≥ 10000 nM	16.9 nM
COc1nc(-c2cccc(-c3ccnc(-c4cc(OC)c5nc(CN6CC(C)(C#N)C6)cn5c4)c3Cl)c2Cl)ccc1CNC1CCN(C(C)=O)CC1 [Example 477, 1-((6-(4-(3-(5-(((1-Acetylpiperidin-4-yl)amino)methyl)-6-methoxypyridin-2-yl)-2-chlorophenyl)-3-chloropyridin-2-yl)-8-methoxyimidazo[1,2-a]pyridin-2-yl)methyl)-3-methylazetidine-3-carbonitrile]	7480 nM	21.4 nM
COc1nc(-c2cccc(-c3ccnc(-c4cc(OC)c5nc(CNCC(F)F)cn5c4)c3Cl)c2Cl)ccc1CNC1CCN(C(C)=O)CC1 [Example 478, 1-(4-(((6-(2-Chloro-3-(3-chloro-2-(2-(((2,2-difluoroethyl)amino)methyl)-8-methoxyimidazo[1,2-a]pyridin-6-yl)pyridin-4-yl)phenyl)-2-methoxypyridin-3-yl)methyl)amino)piperidin-1-yl)ethan-1-one]	≥ 10000 nM	43.9 nM
COc1cc(-c2nccc(-c3cccc(-c4ccc(CNC5CCN(C(C)=O)CC5)c(OC)n4)c3Cl)c2Cl)cc2c1CN(C1CCN(CC(=O)O)C1=O)CC2 (stereo not drawn) [Example 480, 2-(3-(6-(4-(3-(5-(((1-Acetylpiperidin-4-yl)amino)methyl)-6-methoxypyridin-2-yl)-2-chlorophenyl)-3-chloropyridin-2-yl)-8-methoxy-3,4-dihydroisoquinolin-2(1H)-yl)-2-oxopyrrolidin-1-yl)acetic acid]	1490 nM	3.9 nM
COc1cc(-c2nccc(-c3cccc(-c4ccc(CN5CC6(C5)CN(C(C)=O)C6)c(OC)n4)c3Cl)c2Cl)ccc1CNC1CCN(C(C)=O)CC1 [Example 483, 1-(4-((4-(4-(3-(5-((6-acetyl-2,6-diazaspiro[3.3]heptan-2-yl)methyl)-6-methoxypyridin-2-yl)-2-chlorophenyl)-3-chloropyridin-2-yl)-2-methoxybenzyl)amino)piperidin-1-yl)ethan-1-one]	39.7 nM	2.63 nM
COc1cc(-c2nccc(-c3cccc(-c4ccc(CN5CC6(CNC(=O)C6)C5)c(OC)n4)c3Cl)c2Cl)ccc1CN1CC2(C1)CN(C(C)=O)C2 [Example 493, 2-((6-(3-(2-(4-((6-Acetyl-2,6-diazaspiro[3.3]heptan-2-yl)methyl)-3-methoxyphenyl)-3-chloropyridin-4-yl)-2-chlorophenyl)-2-methoxypyridin-3-yl)methyl)-2,6-diazaspiro[3.4]octan-7-one]	19.2 nM	0.76 nM
COc1cc(-c2nccc(-c3cccc(-c4ccc(CN5CC6(CNC(=O)C6)C5)c(OC)n4)c3Cl)c2Cl)ccc1CN1CC2(CNC2)C1 [Example 494, 2-((6-(3-(2-(4-((2,6-Diazaspiro[3.3]heptan-2-yl)methyl)-3-methoxyphenyl)-3-chloropyridin-4-yl)-2-chlorophenyl)-2-methoxypyridin-3-yl)methyl)-2,6-diazaspiro[3.4]-octan-7-one]	61.7 nM	5.21 nM
COc1cc(-c2nccc(-c3cccc(-c4ccc(CN(C)CC5CN(C(C)=O)C5)c(OC)n4)c3Cl)c2Cl)ccc1CN(C)CC1CN(C(C)=O)C1 [Example 499, 1-(3-((((6-(3-(2-(4-((((1-Acetylazetidin-3-yl)methyl)(methyl)amino)methyl)-3-methoxyphenyl)-3-chloropyridin-4-yl)-2-chlorophenyl)-2-methoxypyridin-3-yl)methyl)(methyl)amino)methyl)azetidin-1-yl)ethan-1-one]	88.5 nM	2.07 nM
COCC1CCN(Cc2ccc(-c3nccc(-c4cccc(-c5ccc(CNC6CCN(C(C)=O)CC6)c(OC)n5)c4Cl)c3Cl)cc2OC)CC1 [Example 509, 1-(4-(((6-(2-Chloro-3-(3-chloro-2-(3-methoxy-4-((4-(methoxymethyl)piperidin-1-yl)methyl)phenyl)pyridin-4-yl)phenyl)-2-methoxypyridin-3-yl)methyl)amino)piperidin-1-yl)ethan-1-one]	100 nM	9.77 nM
COc1cc(-c2nccc(-c3cccc(-c4ccc(CNC5CCN(C(C)=O)CC5)c(OC)n4)c3Cl)c2Cl)ccc1CNCC(F)F [Example 513, 1-(4-(((6-(2-Chloro-3-(3-chloro-2-(4-(((2,2-difluoroethyl)amino)methyl)-3-methoxyphenyl)pyridin-4-yl)phenyl)-2-methoxypyridin-3-yl)methyl)amino)piperidin-1-yl)ethan-1-one]	685 nM	47.1 nM
COc1cc(-c2nccc(-c3cccc(-c4ccc(CN[C@H]5C[C@](C)(O)C5)c(OC)n4)c3Cl)c2Cl)ccc1CN1CC2(CNC(=O)C2)C1 [Example 517, 2-(4-(3-Chloro-4-(2-chloro-3-(5-((((1r,3r)-3-hydroxy-3-methylcyclobutyl)-amino)methyl)-6-methoxypyridin-2-yl)phenyl)pyridin-2-yl)-2-methoxybenzyl)-2,6-diazaspiro[3.4]octan-7-one]	17 nM	1.55 nM
COc1cc(-c2nccc(-c3cccc(-c4ccc(CN5CC(C)(O)C5)c(OC)n4)c3Cl)c2Cl)ccc1CN1CC2(CNC(=O)C2)C1 [Example 518, 2-(4-(3-Chloro-4-(2-chloro-3-(5-((3-hydroxy-3-methylazetidin-1-yl)methyl)-6-methoxypyridin-2-yl)phenyl)pyridin-2-yl)-2-methoxybenzyl)-2,6-diazaspiro[3.4]octan-7-one]	9.77 nM	2.42 nM
COc1cc(-c2nccc(-c3cccc(-c4ccc(CN5CC6(C5)CN(C(C)=O)C6)c(OC)n4)c3Cl)c2Cl)ccc1CN1CC2(CNC(=O)C2)C1 [Example 519, 2-(4-(4-(3-(5-((6-Acetyl-2,6-diazaspiro[3.3]heptan-2-yl)methyl)-6-methoxypyridin-2-yl)-2-chlorophenyl)-3-chloropyridin-2-yl)-2-methoxybenzyl)-2,6-diazaspiro[3.4]octan-7-one]	12.8 nM	1.86 nM
COc1cc(-c2ncnc(-c3cccc(-c4ccc(CNC5CCN(C(C)=O)CC5)c(OC)n4)c3Cl)c2C)ccc1CNC1CCN(C(C)=O)CC1 [Example 522, 1-(4-(((6-(3-(6-(4-(((1-Acetylpiperidin-4-yl)amino)methyl)-3-methoxyphenyl)-5-methylpyrimidin-4-yl)-2-chlorophenyl)-2-methoxypyridin-3-yl)methyl)amino)piperidin-1-yl)ethan-1-one]	≥ 10000 nM	2.05 nM
COc1cc(-c2nccc(-c3cccc(-c4ccc(CNC5CCOCC5)c(OC)n4)c3C(F)(F)F)c2Cl)ccc1CNC1CCOCC1 [Example 529, N-((6-(3-(3-Chloro-2-(3-methoxy-4-(((tetrahydro-2H-pyran-4-yl)amino)methyl)phenyl)pyridin-4-yl)-2-(trifluoromethyl)phenyl)-2-methoxypyridin-3-yl)methyl)tetrahydro-2H-pyran-4-amine]	≥ 10000 nM	110 nM
COc1cc(-c2nccc(-c3cccc(-c4ccc(CNC5CCOCC5)c(OC)n4)c3Cl)c2Cl)ccc1CN1CC2(CCOCC2)C1 [Example 530, N-((6-(3-(2-(4-((7-Oxa-2-azaspiro[3.5]nonan-2-yl)methyl)-3-methoxyphenyl)-3-chloropyridin-4-yl)-2-chlorophenyl)-2-methoxypyridin-3-yl)methyl)tetrahydro-2H-pyran-4-amine]	39.5 nM	2.51 nM
COc1cc(-c2nccc(-c3cccc(-c4ccc(CN5CCC(C(C)=O)CC5)c(OC)n4)c3Cl)c2Cl)ccc1CN1CCC(C(C)=O)CC1 [Example 536, 1-(1-((6-(3-(2-(4-((4-Acetylpiperidin-1-yl)methyl)-3-methoxyphenyl)-3-chloropyridin-4-yl)-2-chlorophenyl)-2-methoxypyridin-3-yl)methyl)piperidin-4-yl)ethan-1-one]	≥ 10000 nM	6.7 nM
COc1cc(-c2ncnc(-c3cccc(-c4ccc(CN5CC6(C5)CN(C(C)=O)C6)c(OC)n4)c3Cl)c2C)ccc1CN1CC2(C1)CN(C(C)=O)C2 [Example 538, 1-(6-((6-(3-(6-(4-((6-Acetyl-2,6-diazaspiro[3.3]heptan-2-yl)methyl)-3-methoxyphenyl)-5-methylpyrimidin-4-yl)-2-chlorophenyl)-2-methoxypyridin-3-yl)methyl)-2,6-diazaspiro[3.3]heptan-2-yl)ethan-1-one]	≥ 10000 nM	2.59 nM
COc1cc(-c2ncnc(-c3cccc(-c4ccc(CNC5CCN(C(C)=O)CC5)c(OC)n4)c3Cl)c2Cl)ccc1CNC1CCN(C(C)=O)CC1 [Example 540, 1-(4-(((6-(3-(6-(4-(((1-Acetylpiperidin-4-yl)amino)methyl)-3-methoxyphenyl)-5-chloropyrimidin-4-yl)-2-chlorophenyl)-2-methoxypyridin-3-yl)methyl)amino)piperidin-1-yl)ethan-1-one]	86.6 nM	0.5 nM
